Experimental data: patent US20160199463A1, “HDAC2 DEFENDS VASCULAR ENDOTHELIUM FROM INJURY” (The Johns Hopkins University, priority 2014, published 2016)
Entries after “also recorded” stand apart in the source; their conditions may differ. Read-outs that look alike come from different tables or passages of the source. Peptide text beside a SMILES is read from it. * marks the point of attachment. Cbz = O=C(OCc1ccccc1)*

Assays:
NO production in HAECs = assay: Nitric oxide production in HAECs (DAF-DA fluorescence, Siever's NO analyzer); format: cell-based, human; settings: TSA 1 μmol/L with ABH (1 μmol/L)
Experimental: (§1) Nitric Oxide levels in HAEC were determined using DAF-DA as per manufacture instructions (Life Sciences). Briefly, cells were loaded with DAF-DA (5 μM) for 20 min and washed 3 times with PBS and incubated for another 30 min in phenol-free media. Fluorescence was determined using a Nikon TE-200 epifluorescence microscope. Images were captured with a Rolera EMC2 camera (Q-Imaging, BC, Canada) with Velocity software (PerkinElmer, Lexington, Mass.). NO production in the cell culture media was also determined by measuring Nitrite levels using a Siever's NO analyzer. NO radicals were measured in cell media collected after 24 hours of treatment using the Oxiselect assay (Cell Biolabs, San Diego, Calif.).

[1] = tested on: aortic rings of wild-type mice; assay: Force tension (wire) myography, vascular relaxation of isolated wild-type mouse aortic rings; format: cell-based; design: Emax: dose or concentration left out as unconfirmed; settings: for endothelium-independent responses to SNP, dose-dependent vasorelaxation: MGCD0103, MLN4924 or both, FIG. 29B
Experimental: (§2) Mouse aorta was isolated and cleaned in ice-cold Krebs-Ringer-bicarbonate solution containing the following (in mM): 118.3 NaCl, 4.7 KCl, 1.6 CaCl2, 1.2 KH2 PO4, 25 NaHCO3, 1.2 MgSO4, and 11.1 dextrose. The aorta was immersed in a bath filled with constantly oxygenated Krebs buffer at 37° C. Equal size thoracic aortic rings (2 mm) were mounted using a microscope, ensuring no damage to the smooth muscle or endothelium. One end of the aortic rings was connected to a transducer, and the other to a micromanipulator. Aorta was passively stretched to an optimal resting tension using the micromanipulator, after which a dose of 60 mM KCl was administered, and repeated after a wash with Krebs buffer. After these washes, all vessels were allowed to equilibrate for 20-30 min in the presence of indomethacin (3 μM). Phenylephrine (1 μM) was administered to induce vasoconstriction. A dosedependent response (1 nM to 10 μM), with the muscarinic agonist, ACH or nitric oxide donor, SNP, was then performed as necessary. The responses were repeated in the presence of inhibitors. Relaxation responses were calculated as a percentage of tension following pre-constriction. Sigmoidal dose-response curves were fitted to data with the minimum constrained to 0. Two to four rings were isolated from each animal and the number of animals in each group (n) was 6.

[2] = tested on: calcium-insensitive eNOS in HEK 293 cells; assay: NO radicals in medium of HEK 293 cells expressing calcium-insensitive eNOS (DCFH-DiOxyQ assay); format: cell-based, human; settings: TSA together with ABH
Experimental: as §1
Next, the functional consequences of HDAC inhibition on downstream endothelial cell signaling were evaluated. Because eNOS-derived NO plays a central role in endothelial function, eNOS activity was assessed by measuring NO production using 3 different assays. […] HEK 293 cells lack native eNOS expression, but do produce abundant Arg2. Cell medium from 293 cells transfected with a control plasmid (LacZ) was used as a control background signal that was subtracted from all the groups containing calcium-insensitive endothelial nitric oxide synthase.

Arg2 = Arg2 protein expression in HAECs (Western blot); format: cell-based, human; settings: for OxLDL-induced increase in abundance of endothelial arginase: preincubation 8 h, MLN4924 1 μM or MG132 10 μM, then OxLDL 50 μg/mL 24 h
Experimental: (§3) After 48 hrs of HAEC cells transfection, cells were lysed in ice cold RIPA lysis buffer consisting of 20 mM Tris-HCl at pH 7.5, 150 mM NaCl, 1 mM EDTA, 1 mM EGTA, 1% NP40, 1% sodium deoxycholate, 1 mM Na3VO4, 2.5 mM sodium pyrophosphate, 1 mM 3-glycerophosphate, 1 μg/mL leupeptin, and a 1:1000 diluted protease inhibitor cocktail (Sigma). For immunoprecipitation studies, whole cell lysate lysates were centrifuged at 14,000×g and supernatants were precleared by incubation with Protein A/G-agarose beads for 2 h at 4° C. with rocking. Agarose beads were then pelleted by centrifugation at 1,000×g. FLAG-Arg2 in precleared lysates were immunoprecipitated by incubation overnight at 4° C. with rocking following addition of anti-FLAG antibody (10 μl). Immune complexes were eluted in 2×SDS sample buffer by boiling for 5 minutes before loading into SDS-PAGE. Western blotting analysis was performed by transferring the SDS gel onto a PVDF membrane and visualized using secondary antibodies conjugated to alkaline phosphatases.

[3] = tested on: arginase activity in HAECs; assay: Arginase activity assay (urea production) in HAEC lysates; format: cell-based, human; settings: for OxLDL-induced increase in activity of endothelial arginase: preincubation 8 h, MLN4924 1 μM or MG132 10 μM, then OxLDL 50 μg/mL 24 h
Experimental: HAEC were lysed using RIPA buffer (50 mM of Tris.HCl, pH 7.5, 0.1 mM EDTA, 0.1% Triton X-100, and protease inhibitor), and centrifuged for 30 min at 14,000 g at 4° C. 50 μL (50-100 μg) of supernatant was added to 75 μl of 10 mM MnCl2 made in Tris-HCl (50 mM, pH 7.5) and heat activated by incubating at 55-60° C. for 10 min. 50 μL of L-Arginine that was prepared in 300 mM Tris-HCL, pH 9.7 were then added to the activated cell lysates to achieve final concentrations of 150 mM and incubated at 37° C. for 3 hrs with shaking. The reaction was stopped by adding 400 μL of an acid solution (H2SO4: H3PO4: H20=1:3:7). For colorimetric determination of urea, α-isonitrosopropiophenone (25 μL, 9% in ethanol) was added and further heated at 100° C. for 45 min. Samples were allowed to cool at room temperature in the dark for 10 min and urea concentration was determined by measuring absorbance at 550 nm using a spectrophotometer.

HDAC2 = HDAC2 protein expression in HAECs (immunoblot); format: cell-based, human; settings: for HDAC2 levels in OxLDL-exposed HAEC: pretreatment 8 h, MLN4924 1 μM or MG132 10 μM, then OxLDL 50 μg/mL 24 h
Experimental: as §3

HDAC4, 5, 6, 7, and 8 = settings: cited from earlier work
[4] = tested on: aortic rings from Arg2−/− mice; assay: Force tension (wire) myography, vascular relaxation of aortic rings from Arg2-/- mice; format: cell-based, mouse; settings: Mus musculus, 18 h; read-out: Emax endothelium-dependent relaxation
Experimental: as §2

NEDD8 = assay: Protein NEDDylation in HAECs (immunoblot, immunoprecipitation); format: cell-based, human; settings: HAEC expressing HA-tagged-NEDD8; MLN4924 0, 0.1, 0.3 or 1 μM, dose-dependent
Experimental: FIG. 21A-FIG. 21H is a series of graphs and photographs of immunoblots showing inhibition of NEDDylation by MLN4924 improves OxLDL-mediated vascular endothelial dysfunction via downregulation of Arginase 2. Wire myography was used to measure vasorelaxation with acetylcholine (FIG. 21A, Ach) and sodium nitroprusside (FIG. 21B, SNP) in isolated mice aortas. Conditions included 24 h of OxLDL (50 μg/mL) or control medium preceded by 1 h with either vehicle (DMSO) or MLN4924 (1 μM). […] Note that native (and not transgene) HDAC2 protein levels are shown here. […] Note that “0 μgHA-NEDD8” denotes an empty vector (pcDNA3.1) control. *Indicates p b 0.05 vs control; **indicates p b 0.001; n=6 for vascular reactivity and arginase activity assays.
Densitometry analysis of data from three experiments is shown in top panel. […] Note that “0 μg HA-NEDD8” denotes an empty vector (pcDNA3.1) control. […] Western blots in this figure are representative of 3 independent experiments.

[5] = MS275 2 μmol/L, CI994 1 μmol/L, MC1568 0.5 μmol/L, PC34051 100 nmol/L, MGCD0103 1 μmol/L

NC(CCCCB(O)O)C(=O)O (stereo not shown) [ABH, amino-2-borono-6-hexanoic acid]
TSA-induced decrease of NO production on coincubation with ABH (NO production in HAECs): failed to occur | Emax acetylcholine-mediated vasorelaxation, TSA-treated rings pretreated with ABH ([1]; TSA 200 nmol/L plus ABH (1 mmol/L), n=6): 65.7±12.1% | TSA effect on NO production in the presence of ABH [2]: failed to attenuate

CC(=O)Nc1ccc(C(=O)Nc2ccccc2N)cc1 [CI994, Tacedinaline]
endothelial Arg2 expression, class-specific HDAC inhibitors (Arg2; [5]): no substantial effects

CC(C)C[C@@H](C=O)NC(=O)[C@H](CC(C)C)NC(=O)[C@H](CC(C)C)NC(=O)OCc1ccccc1 [MG132] (Cbz-Leu-Leu-Leu-aldehyde)
OxLDL-induced increase in abundance of endothelial arginase (Arg2): abolished | OxLDL-induced increase in activity of endothelial arginase [3]: abolished | decrease of HDAC2 levels by HA-NEDD8 expression (HDAC2; MG132 10 μM, 8 h): abolished | HDAC2 levels in OxLDL-exposed HAEC (HDAC2): rescued

Nc1ccccc1NC(=O)c1ccc(CNc2nccc(-c3cccnc3)n2)cc1 [MGCD0103, Mocetinostat]
endothelial Arg2 expression, class-specific HDAC inhibitors (Arg2): upregulate | endothelium-independent responses to SNP, dose-dependent vasorelaxation [1]: no significant differences | Ach response in WT aorta ([1]; MGCD0103 preincubation 48 hours): significant attenuation | Emax ([1]; Mus musculus, 18 h, read-out: Emax endothelial-dependent vascular relaxation (acetylcholine)): 42.7 ± 8.5% | SNP-mediated (endothelium-independent) vasorelaxation versus vehicle-only control ([1]; TSA 200 nmol/L or MGCD0103 1 μmol/L, 18 hours): no significant difference; also recorded: unaffected | activity to HDAC4, 5, 6, 7, and 8 (HDAC4, 5, 6, 7, and 8): selectivity against HDAC2, 3, and 11, and no | Emax at 1 µM [4]: 62.4 ± 16.5%

NS(=O)(=O)OC[C@@H]1C[C@@H](n2ccc3c(N[C@H]4CCc5ccccc54)ncnc32)C[C@@H]1O [MLN4924]
quantity of NEDDylation conjugates (NEDD8): attenuated | OxLDL-induced increase in abundance of endothelial arginase (Arg2): abolished | endothelium-independent responses to SNP, dose-dependent vasorelaxation [1]: no significant differences | endothelial function (acetylcholine dose response) in OxLDL-exposed aortas ([1]; MLN4924 1 μM 1 h before OxLDL 50 μg/mL 24 h): Substantial rescue | Ach response in WT aorta ([1]; MLN4924 1.0 μM pretreatment): did not cause any significant changes | vascular endothelial dysfunction induced by MGCD0103 ([1]; MLN4924 1.0 μM together with MGCD0103): did not reverse | endothelial-dependent vascular relaxation, compound alone ([1]; MLN4924 1 μM without OxLDL): negligible effect | endothelial-independent vascular relaxation (sodium nitroprusside) ([1]; OxLDL 50 μg/mL 24 h, MLN4924 1 μM): unaffected | arginase activity in the absence of OxLDL ([3]; MLN4924 1 μM): decreased | OxLDL-induced increase in activity of endothelial arginase [3]: abolished | HDAC2 protein expression in the absence of OxLDL (HDAC2; MLN4924 0, 0.1, 0.3 or 1 μM): robust dose-dependent increase | HDAC2 levels in OxLDL-exposed HAEC (HDAC2): rescued

Nc1ccccc1NC(=O)c1ccc(CNC(=O)OCc2cccnc2)cc1 [MS275, Entinostat]
endothelial Arg2 expression, class-specific HDAC inhibitors (Arg2; [5]): no substantial effects
